Measured values taken from PMC5259778, “Candidate pheromone receptors of codling moth Cydia pomonella respond to pheromones and kairomones” (Scientific Reports, 2017).

Molecular target: CpomOrco + OR6a (Cydia pomonella, UniProt H9A5M1)
Experiment: Calcium imaging of HEK293T cells expressing CpomOrco + OR6a
Format: cell-based
Protocol: HEK293T cells were grown in HEK cell media [Dulbecco’s modified Eagle’s medium containing 10% fetal bovine serum (MP Biomedicals, Solon, OH, USA), 2.0 mM L-glutamine, and 100 μg/mL Penicillin/Streptomycin (Invitrogen)] at 37 °C and 5% CO2. To test transient expression of CpomORs for calcium imaging or patch-clamp recording experiments, 35-mm petri dishes containing semi-confluent HEK293T cells were transiently transfected. To transfect cells with CpomOrco, we used 1.0 μg of pcDNA5/TO/CpomOrco DNA. In order to promote expression of the OR[51], we used double aliquots for pcDNA5/TO/CpomOR DNAs (2.0 μg), combined with 1.0 μg of pcDNA5/TO/CpomOrco for co-transfections (CpomOrco + ORs). To report expression for calcium imaging experiments, 1.0 μg of a separate plasmid DNA [pEBFP2-Nuc, a gift from Robert Campbell (Addgene plasmid # 14893[52])] carrying the coding sequence for a blue fluorescent protein (BFP) was used. In patch-clamp recordings, 1.0 μg of a separate plasmid DNA (pXOOM, Clontech) carrying the coding sequence for a green fluorescent protein (GFP) was used to report expression. In order to report candidate OR-expressing cells, expression of both fluorescent reporter genes was under the regulation of the same promoter for CpomOR genes (CMV). Transfection DNAs were dissolved in 100 μL sterile DMEM, mixed with 3.0 μL Calfectin (SignaGen, Rockville, MD, USA) following the recommended protocol. To estimate transfection efficiency, a parallel transfection was conducted using the positive control vector pcDNA5/TO/LACZ (Invitrogen) and staining with 0.1% XGal[53].
Transfections were conducted overnight. HEK cell media was replaced with 1.0 mL fresh media to incubate cells at 37 °C for up to 6 h, at which point part of the cell culture was spread in the middle of a 35-mm plate as individual cells or small clusters. After 12 h of incubation at 37 °C and 5% CO2, cells were rinsed at the sides with 2.0 mL fresh HEK media. Cells were allowed to recover for at least 1 h prior to calcium imaging.
To test activation of olfactory receptors, CpomOrco or CpomOrco + ORs HEK293T cells were incubated for 1 h at room temperature in 0.5–1.0 mL HEK cell Ringer (mM: 140 NaCl, 5.0 KCl, 1.0 CaCl2, 1.0 MgCl2, 10 HEPES, 10 Glucose, pH 7.5) containing the fluorescent calcium indicator Fluo-4AM (Invitrogen) at 5–15 μM prepared with 0.2–0.06% Pluronic F-127 (Invitrogen). After incubation, the buffer was removed and cells were rinsed with 4.0 mL fresh HEK Ca^++ Ringer (mM: 140 NaCl, 2.0 CaCl2, 10 HEPES, pH 7.5), and placed on the stage of an inverted microscope (Olympus IX-71, Olympus Corp., Tokyo, Japan) equipped with a cooled CCD camera (ORCA R2, Hamamatsu, Hamamatsu City, Japan). Cells were continuously superfused with Ca^++ Ringer using two gravity fed perfusion contours. The […] contour washing the cells (~250 μL/min) was switched rapidly to the stimulus contour using a multi-channel rapid solution changer (RSC-160, Bio-Logic, Claix, France) under the software control of Clampex 9 (Molecular Devices, Sunnyvale, CA, USA).
Fluorescence imaging was performed using Imaging Workbench 6 software (INDEC BioSystems, Santa Clara, CA, USA). Each cell was assigned a region of interest (ROI) and changes in fluorescence intensity within each ROI were measured and expressed as the fractional change in fluorescence intensity (dF) or in some cases as dF/F0 where F0 is the basal fluorescence level before agonist application. […] Continuous traces of multiple responses were compensated for slow drift of the baseline fluorescence when necessary. All recordings were performed at room temperature (22–25 °C).
HEK293T cells expressing CpomOrco + OR6a, CpomOrco + OR3 and CpomOrco + OR1 were stimulated with an array of compounds such as: potential insect pheromone compounds and plant volatile synergists active on the olfactory system and behaviour of the codling moth[1][25], non-host plant volatiles active on other tortricids, the methyl pear-ester[33] […]

Sequence of CpomOrco + OR6a (H9A5M1 entry or part of it): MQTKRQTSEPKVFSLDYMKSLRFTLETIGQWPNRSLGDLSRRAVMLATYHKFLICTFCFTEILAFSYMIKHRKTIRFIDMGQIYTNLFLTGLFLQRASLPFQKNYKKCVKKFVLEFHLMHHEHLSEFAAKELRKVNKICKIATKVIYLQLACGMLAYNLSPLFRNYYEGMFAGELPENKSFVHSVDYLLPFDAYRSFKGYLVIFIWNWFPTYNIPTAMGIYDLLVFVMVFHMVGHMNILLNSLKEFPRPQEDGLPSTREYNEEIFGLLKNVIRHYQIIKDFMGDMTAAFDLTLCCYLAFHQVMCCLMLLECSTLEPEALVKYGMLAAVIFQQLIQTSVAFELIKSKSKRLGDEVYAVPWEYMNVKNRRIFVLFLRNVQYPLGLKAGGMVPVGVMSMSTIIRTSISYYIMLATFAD
Sequence of CpomOrco + OR6a (H9A5M2 entry or part of it, further chain): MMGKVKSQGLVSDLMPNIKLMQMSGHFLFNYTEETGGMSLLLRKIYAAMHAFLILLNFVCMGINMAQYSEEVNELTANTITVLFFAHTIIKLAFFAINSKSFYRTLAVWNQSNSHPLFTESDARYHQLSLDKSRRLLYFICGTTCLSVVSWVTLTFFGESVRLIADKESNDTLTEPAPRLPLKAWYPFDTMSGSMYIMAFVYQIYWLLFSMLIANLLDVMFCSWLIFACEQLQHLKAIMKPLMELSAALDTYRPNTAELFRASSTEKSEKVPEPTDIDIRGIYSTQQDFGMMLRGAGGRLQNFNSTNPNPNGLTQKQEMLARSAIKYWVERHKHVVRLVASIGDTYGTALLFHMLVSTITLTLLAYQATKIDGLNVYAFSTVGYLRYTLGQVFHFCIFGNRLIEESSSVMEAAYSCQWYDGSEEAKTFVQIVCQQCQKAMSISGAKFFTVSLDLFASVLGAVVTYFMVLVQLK

SMILES | amplitude of the calcium response (mean of the maximum response ± SEM) (100 μM, n = 70) | amplitude of the calcium response (mean of the maximum response ± SEM) (250 μM positive control, n = 68) | amplitude of the calcium response (mean of the maximum response ± SEM) (50 μM, n = 70) | amplitude of the calcium response (mean of the maximum response ± SEM) (1500 μM, n = 68) | Emax (HEK-293T, vs 250 μM VUAA3, read-out: amplitude at saturating concentrations relative to the positive control amplitude) | EC50 (calcium response normalized to 250 μM VUAA3)
CCn1c(SCC(=O)Nc2ccc(C(C)C)cc2)nnc1-c1ccncc1 [VUAA3, acetamide,2-[[4-ethyl-5-(4-pyridinyl)-4H-1,2,4-triazol-3-yl]thio]-N-[4-(1-methylethyl)phenyl]-] | 37.96 ± 20.98 dF | 69.71 ± 27.29 dF | – | – | – | –
C/C=C/C=C/CCCCCCCOC(C)=O [codlemone acetate, (E,E)-8,10-dodecadien-1-yl acetate] | – | – | 12.04 ± 8.17 dF | 18.91 ± 10.31 dF | ~27% | 51.8 ± 13.2 µM
C/C=C/C=C/CCCCCCCO [codlemone, (E,E)-8,10-dodecadien-1-ol] | – | – | 0.38 ± 1.84 dF | 5.7 ± 3.64 dF | – | –
